# Measurements reported in PubChem BioAssay AID812 (SRMLSC, 2007).
# Activity calls are given as the source filed them. How the calls were made is not given here.
# Tested on: Saccharomyces cerevisiae lifespan extension, no nicotinamide
# Assay: yeast lifespan extension without nicotinamide, confirmation, yeast lifespan extension project, S. cerevisiae (AID 812);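 further: growth read as optical density after 42 hours of incubation at 30C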
row,Structure (SMILES),EC50
1,CC1=NN(c2ccc(C(F)(F)F)cn2)C(=O)C1,> 40 µM (inactive)
2,O=C(N/N=C/c1ccccc1)c1c(O)c2ccccc2[nH]c1=O,> 40 µM (inactive)
3,O=C(Nc1scc(-c2ccc(F)cc2)c1C(=O)O)c1ccco1,> 40 µM (inactive)
4,CC(C)Cn1c(=O)c(C(=O)Nc2cnccn2)c(O)c2ccccc21,> 40 µM (inactive)
5,CN=C(SCc1cc2c(cc1Cl)OCO2)c1c(O)n(C)c(=O)n(C)c1=O,> 40 µM (inactive)
6,O=C1C=CCC(/C=C/c2ccccc2)O1 (stereo not given),> 40 µM (inactive)
7,Cc1ccc(S(=O)(=O)C(C#N)c2nc3ccccc3nc2N2CCCC2)cc1 (stereo not given),> 40 µM (inactive)
8,O=c1cc(O)c2c(=O)n(-c3ccccc3)c3c(c2o1)CCCCCC3,> 40 µM (inactive)
9,C/C=C/Cn1c(N2CCCCCC2)nc2c1c(=O)[nH]c(=O)n2C,> 40 µM (inactive)
10,COc1cc(/C=C/C(=O)c2c(O)cc(C)oc2=O)cc(OC)c1O,> 40 µM (inactive)
11,CCOC(=O)c1[nH]nc(C(=O)c2ccc(Br)cc2)c1O,> 40 µM (inactive)
12,COCCOC(=O)/C(=C/c1ccc(OC(=O)c2ccccc2)cc1)C(C)=O,> 40 µM (inactive)
13,O=C(Nc1cccc(Cl)c1)c1ccc2c(=O)n3c(nc2c1)CCCCC3,> 40 µM (inactive)
14,CCCCn1c(NS(=O)(=O)c2ccc(C)cc2)c(C(=O)OCC)c2nc3ccccc3nc21,> 40 µM (inactive)
15,CCOC(=O)c1ccccc1N1C(=O)CSC1=S,> 40 µM (inactive)
16,C=CCn1c(-c2ccc(OC)cc2)csc1=Nc1c(C)n(C)n(-c2ccccc2)c1=O,> 40 µM (inactive)
17,CN(C)/C=C(/C(=O)c1ccc(Cl)cc1Cl)S(=O)(=O)c1ccc(Cl)cc1,> 40 µM (inactive)
18,O=C1Nc2cc(Cl)c(Cl)cc2N(O)N1c1cc(Cl)cc(Cl)c1,> 40 µM (inactive)
19,CC(=O)c1c(O)cc2n(c1=O)-c1ccc(Cl)cc1C2(C)C,> 40 µM (inactive)
20,CCCc1nc2c(c(=O)c3ccccc3n2C)c(=O)n1C1CCCCCC1,> 40 µM (inactive)
21,ClC(Cl)(c1nnnn1-c1ccccc1)c1nnnn1-c1ccccc1,> 40 µM (inactive)
22,Fc1cccc2sc(Nc3nnc(-c4ccccc4)o3)nc12,> 40 µM (inactive)
23,CCOC(=O)CN1C(=O)N[C@H](c2ccc(Br)cc2)C(C(C)=O)=C1C,> 40 µM (inactive)
24,COC(=O)CC1=NN(c2ccccc2)C(=O)/C1=C\c1ccc(OC)cc1,> 40 µM (inactive)
25,Cc1ccc2nc(N3C(=O)C(O)=C(C(=O)c4ccco4)C3c3cccs3)sc2c1 (stereo not given),> 40 µM (inactive)

row,Structure (SMILES),EC50
1,CCOc1ccc(C(=O)C(CN2CCOCC2)c2ccccc2)cc1 (stereo not given),> 40 µM (inactive)
2,Cc1cc(C)cc(CC2CC(=O)N(c3ccc(Cl)cn3)C2=O)c1 (stereo not given),> 40 µM (inactive)
3,C=C(CC)C(=O)c1ccc(OCC(=O)O)c(Cl)c1Cl,> 40 µM (inactive)
4,Cc1ccnc(N=Cc2c(O)ccc3oc4c(c23)CCCC4)c1,> 40 µM (inactive)
5,CCOc1cc(/C=C\[N+](=O)[O-])ccc1OCC(=O)Nc1ccccc1C,> 40 µM (inactive)
6,Cc1ccsc1C(=O)Nc1nnc(-c2ccco2)o1,> 40 µM (inactive)
7,COc1cc(Br)cc(-c2nc3c(c(=O)[nH]c(=O)n3Cc3ccccc3)n2C)c1O,> 40 µM (inactive)
8,CCn1c(/C=N/c2nc3ccccc3n2C)nc2ccccc21,> 40 µM (inactive)
9,O=C(O)CCCCCN1C(=O)/C(=C\c2ccncc2)SC1=S,> 40 µM (inactive)
10,Cc1cc2c(c(=O)n1CCc1ccccc1)C(c1ccco1)C(C#N)=C(N)O2 (stereo not given),> 40 µM (inactive)
11,COc1cnc(-c2ccccn2)nc1Sc1cccc(Cl)c1,> 40 µM (inactive)
12,CC(C)(C)C(=O)/C(=C/c1cccc([N+](=O)[O-])c1)n1cncn1,> 40 µM (inactive)
13,Cc1ccc(C(=O)/C=C\C(=O)c2ccc(C)cc2)cc1,> 40 µM (inactive)
14,CCCn1[nH]cc(SC)c(=O)c1=O,> 40 µM (inactive)
15,COCCCN(C(=S)Nc1cc(Cl)cc(Cl)c1)C(C)c1ccncc1 (stereo not given),> 40 µM (inactive)
16,COc1c(Br)cc(Br)cc1/C=N/n1c(C)nnc1C,> 40 µM (inactive)
17,CCCCCCN1CC(C(=O)OCC)C(=O)C1=O (stereo not given),> 40 µM (inactive)
18,CC1(C)Cc2ccccc2-c2nnc(SCC(=O)Nc3ccc4c(c3)OCO4)n21,> 40 µM (inactive)
19,CCCCCn1c(=O)c(C(=O)NCc2ccccn2)c(O)c2ccccc21,> 40 µM (inactive)
20,C/C(=N\NC(=O)c1cccnc1)c1c(O)cc(C)oc1=O,> 40 µM (inactive)
21,CN1C(=O)/C(=C/c2cccn2-c2ccc3ccccc3c2)C(=O)NC1=S,> 40 µM (inactive)
22,Cc1cccc(N2C(=O)/C(=C\c3ccc(OC(F)F)cc3)c3ccccc3C2=O)c1,> 40 µM (inactive)
23,Cc1ccc(N/C(C(Cl)=C(Cl)Cl)=C(/Cl)[N+](=O)[O-])c(C)c1,> 40 µM (inactive)
24,CCCc1cc(=O)oc2cc(C)c(CN3CCCC3)c(O)c12,> 40 µM (inactive)
25,O=C(N/N=C/c1ccc(F)cc1)c1c(O)c2ccccc2[nH]c1=O,> 40 µM (inactive)

row,Structure (SMILES),EC50
1,O=c1c2[nH]c3ccccc3c2ncn1Cc1ccco1,> 40 µM (inactive)
2,Cn1c(=O)c2c(nc(Br)n2Cc2ccc3ccccc3c2)n(C)c1=O,> 40 µM (inactive)
3,Cc1ccc(CNc2nc3ccccc3s2)s1,> 40 µM (inactive)
4,CC(=O)[C@H]1[C@H](c2cccc(Cl)c2)C(C#N)(C#N)[C@@H]2c3ccccc3C=CN21,> 40 µM (inactive)
5,Cc1ccc(S(=O)(=O)Nc2ccccc2/C=N/c2nc3ccccc3n2C(C)C)cc1,> 40 µM (inactive)
6,CCN(CC)Cc1c(O)c(Cl)cc2c(C)c(C)c(=O)oc12,> 40 µM (inactive)
7,CCCNC(=O)CCC(NS(=O)(=O)c1ccc(C)cc1)C(=O)NCCC (stereo not given),> 40 µM (inactive)
8,C=C(C(=O)c1ccccc1)C(CC(=O)c1ccccc1)c1ccccc1 (stereo not given),> 40 µM (inactive)
9,CN1CCN(C(=S)Nc2cc([N+](=O)[O-])ccc2Cl)CC1,> 40 µM (inactive)
10,O=C1c2ccccc2C(Nc2ccc3c(c2)OCCO3)N1c1ccccn1 (stereo not given),> 40 µM (inactive)
11,Cc1c(NC(=O)C(=O)/C=C(/O)c2ccccc2)c(=O)n(-c2ccccc2)n1C,> 40 µM (inactive)
12,CCOc1ccccc1/C=c1\sc2ncnn2c1=O,> 40 µM (inactive)
13,O=C1c2ccccc2C(=O)N1Cc1nc2ccccc2c(=O)n1-c1ccc(Br)cn1,> 40 µM (inactive)
14,O=C(O)c1ccc(O)c(N2C(=O)Nc3ccccc3N2O)c1,> 40 µM (inactive)
15,CC[n+]1c(/C=C2\C=C(C)CC(C)(C)C2)sc2ccccc21,> 40 µM (inactive)
16,O=C1c2ccccc2-c2onc3c(Oc4ccccc4)cc(O)c1c23,> 40 µM (inactive)
17,O=C(CCl)N1c2ccccc2OCC1c1ccccc1 (stereo not given),> 40 µM (inactive)
18,CCc1ccc2c(c1)CCCN2C(=O)c1ccccc1C(=O)O,> 40 µM (inactive)
19,CC(C)CN=C(NS(=O)(=O)c1ccccc1)C(Cl)(Cl)Cl,> 40 µM (inactive)
20,COc1ccc(NCc2nc3ccccc3n2CCOc2ccccc2)cc1,> 40 µM (inactive)
21,CC(=C1C(=O)c2ccccc2C1=O)N1CCN(C/C=C/c2ccccc2)CC1,> 40 µM (inactive)
22,CCCC(=Nc1ccc(N)cc1)C1=C(O)C(C(=O)OC)C(C)(C)CC1=O (stereo not given),> 40 µM (inactive)
23,Cc1ccc(C(=O)c2no[n+]([O-])c2C(=O)c2ccc(C)cc2)cc1,> 40 µM (inactive)
24,CC(C)c1ccc(C2=C(O)c3ccccc3C(=O)C2=O)cc1,> 40 µM (inactive)
25,CCCCC(=O)Nc1ccc(C(=O)NNC(=S)NC(=O)c2cccs2)cc1,> 40 µM (inactive)

row,Structure (SMILES),EC50
1,CNC(=O)/C(C#N)=C/c1c(F)cccc1Cl,> 40 µM (inactive)
2,Cc1c(NC(=O)C(=O)/C=C(\O)c2ccc(Cl)cc2)c(=O)n(-c2ccccc2)n1C,> 40 µM (inactive)
3,CCN(CCO)C(=O)C12CCC(C)(C(=O)C1)C2(C)C (stereo not given),> 40 µM (inactive)
4,CCCCCSc1nc2c(c(=O)[nH]c(=O)n2C)n1C,> 40 µM (inactive)
5,C/C(=N\NC(=O)c1cccc(Cl)c1)C1C(=O)c2ccccc2C1=O,> 40 µM (inactive)
6,CCc1nnc(N2C(=O)c3ccc(Oc4ccc([N+](=O)[O-])cc4)cc3C2=O)s1,> 40 µM (inactive)
7,O=C1c2ccccc2C(=O)N1OCc1ccccc1,> 40 µM (inactive)
8,CC1(C)Oc2ccccc2OC1(O)c1ccc2ccccc2n1 (stereo not given),> 40 µM (inactive)
9,CC(=O)N1CCN(CCN=CC2=C(O)CC(c3cccs3)CC2=O)CC1 (stereo not given),> 40 µM (inactive)
10,COC(=O)C1=C(N)OC2=C(C(=O)CC(C)(C)C2)C1c1cccs1 (stereo not given),> 40 µM (inactive)
11,Cc1ccc2nc(-c3ccc(NC(=O)CSc4ccccc4)cc3)[nH]c2c1,> 40 µM (inactive)
12,CC1CCCCC1NC(=O)/C(C#N)=C/c1ccccc1F (stereo not given),> 40 µM (inactive)
13,CCOC(=O)c1c(C)oc2c1c(C(c1cccnc1)N1CCOCC1)c(O)c1ccccc12 (stereo not given),> 40 µM (inactive)
14,O=C(O)Cc1ccc(N=Cc2c(O)ccc3ccccc23)cc1,> 40 µM (inactive)
15,CN(C)C1(c2nnnn2CCOC(=O)Nc2ccc(Cl)cc2)CCCCC1,> 40 µM (inactive)
16,CCCCN(CCCC)c1ccc(C(=O)c2ccccc2C(=O)O)c(O)c1,> 40 µM (inactive)
17,CCc1nnc(NC(=O)c2cccc(S(=O)(=O)N(C)c3ccccc3)c2)s1,> 40 µM (inactive)
18,CCCn1c(SCC(=O)c2ccc3c(c2)NC(=O)CO3)nc2ccccc21,> 40 µM (inactive)
19,CC1(C)CC2c3cccc(C(=O)O)c3C(=O)N2c2c1ccc1ccccc21 (stereo not given),> 40 µM (inactive)
20,CCC(=O)Nc1ccccc1Sc1ncnc2scc(-c3ccccc3)c12,> 40 µM (inactive)
21,CC1CCCCN1C(=S)Nc1ccc2nc3n(c(=O)c2c1)CCCCC3 (stereo not given),> 40 µM (inactive)
22,COCCCNC(CC(=O)Nc1ccc(OC)cc1OC)C(=O)O (stereo not given),> 40 µM (inactive)
23,C=C(C(=O)c1ccccc1)C(C)C(=C)C(=O)c1ccccc1,> 40 µM (inactive)
24,CCOC(=O)CC1=NN(c2ccccc2)C(=O)/C1=C\c1ccc(OC)cc1OC,> 40 µM (inactive)
25,COc1ccccc1N(CN1CCCC1=O)C(=O)c1c(F)cccc1F,> 40 µM (inactive)
